The supplement of paper PMC10307832

Assays:
Test in all cases: relative viability (nuclei count vs DMSO), 5 days (fraction); higher = more cells survive
[1] = compound: Cc1ccc2nc(NCCN)c3ncc(C)n3c2c1 + CC(=O)c1c(C)c2cnc(Nc3ccc(N4CCNCC4)cn3)nc2n(C2CCCC2)c1=O [Palbociclib] (partner 0.5 µM)
In short: (§1)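 Nuclei were stained with Hoechst during a one-step fixation (final 0.05% Triton X-100, 1% formaldehyde, 1 ug/ml Hoechst) carried out 5 days after dosing, then counted on 4× images. The cells, lung cancer lines in 1536-well plates, had been dosed by pin tool the day after seeding with one drug alone or a fixed anchor-drug dose plus five library-drug doses (not always all listed) in √10 steps. Relative viability is the nuclei count in treated wells divided by that in vehicle wells, and each value is the median of duplicate plates.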

Salubrinal + Olaparib = compound: O=C(/C=C/c1ccccc1)NC(NC(=S)Nc1cccc2cccnc12)C(Cl)(Cl)Cl [Salubrinal] + O=C(c1cc(Cc2n[nH]c(=O)c3ccccc23)ccc1F)N1CCN(C(=O)C2CC2)CC1 [Olaparib] (partner 8 µM)
In short: as §1

Salubrinal + Pictilisib = compound: O=C(/C=C/c1ccccc1)NC(NC(=S)Nc1cccc2cccnc12)C(Cl)(Cl)Cl [Salubrinal] + CS(=O)(=O)N1CCN(Cc2cc3nc(-c4cccc5[nH]ncc45)nc(N4CCOCC4)c3s2)CC1 [Pictilisib] (partner 1 µM)
In short: as §1

Salubrinal + Palbociclib = compound: O=C(/C=C/c1ccccc1)NC(NC(=S)Nc1cccc2cccnc12)C(Cl)(Cl)Cl [Salubrinal] + CC(=O)c1c(C)c2cnc(Nc3ccc(N4CCNCC4)cn3)nc2n(C2CCCC2)c1=O [Palbociclib] (partner 0.5 µM)
In short: as §1

Cell Line | relative viability ([1]; first compound 0.04 µM) | relative viability ([1]; first compound 0.1265 µM) | relative viability ([1]; first compound 0.4 µM) | relative viability ([1]; first compound 1.265 µM) | relative viability ([1]; first compound 4 µM) | relative viability (Salubrinal + Olaparib; first compound 0.08 µM) | relative viability (Salubrinal + Olaparib; first compound 0.253 µM) | relative viability (Salubrinal + Olaparib; first compound 0.8 µM) | relative viability (Salubrinal + Olaparib; first compound 2.53 µM) | relative viability (Salubrinal + Olaparib; first compound 8 µM) | relative viability (Salubrinal + Pictilisib; first compound 0.08 µM) | relative viability (Salubrinal + Pictilisib; first compound 0.253 µM) | relative viability (Salubrinal + Pictilisib; first compound 0.8 µM) | relative viability (Salubrinal + Pictilisib; first compound 2.53 µM) | relative viability (Salubrinal + Pictilisib; first compound 8 µM) | relative viability (Salubrinal + Palbociclib; first compound 0.08 µM) | relative viability (Salubrinal + Palbociclib; first compound 0.253 µM) | relative viability (Salubrinal + Palbociclib; first compound 0.8 µM) | relative viability (Salubrinal + Palbociclib; first compound 2.53 µM) | relative viability (Salubrinal + Palbociclib; first compound 8 µM)
NCI-H2347 | 0.431 | 0.451 | 0.417 | 0.433 | 0.455 | 0.595 | 0.657 | 0.609 | 0.613 | 0.584 | 0.805 | 0.517 | 0.905 | 0.678 | 0.434 | 0.452 | 0.462 | 0.415 | 0.388 | 0.387
NCI-H2405 | 0.557 | 0.511 | 0.518 | 0.522 | 0.508 | 0.951 | 0.879 | 0.925 | 0.822 | 0.928 | 0.338 | 0.442 | 0.458 | 0.406 | 0.431 | 0.536 | 0.484 | 0.55 | 0.524 | 0.521
NCI-H3122 | 0.167 | 0.193 | 0.163 | 0.199 | 0.213 | 0.762 | 1.23 | 0.566 | 0.664 | 0.683 | 0.565 | 0.633 | 0.657 | 0.694 | 0.663 | 0.195 | 0.238 | 0.172 | 0.195 | 0.176
PC-3 [JPC-3] | 0.56 | 0.56 | 0.552 | 0.513 | 0.512 | 1.16 | 0.567 | 1.23 | 1.1 | 1.09 | 0.796 | 0.666 | 0.714 | 0.727 | 0.702 | 0.514 | 0.579 | 0.539 | 0.28 | 0.629
PC-14 | 0.447 | 0.488 | 0.475 | 0.386 | 0.244 | 0.278 | 0.258 | 0.259 | 0.246 | 0.25 | 0.792 | 0.597 | 0.668 | 0.702 | 0.626 | 0.708 | 0.434 | 0.609 | 0.47 | 0.384
RERF-LC-KJ | 0.969 | 1 | 1.14 | 1.08 | 0.881 | 0.901 | 0.838 | 0.996 | 0.753 | 0.951 | 0.664 | 0.622 | 0.549 | 0.608 | 0.52 | 1.14 | 1.04 | 1.13 | 1.09 | 0.964
SK-LU-1 | 0.412 | 0.383 | 0.385 | 0.393 | 0.38 | 0.508 | 0.452 | 0.476 | 0.454 | 0.378 | 0.678 | 0.588 | 0.698 | 0.647 | 0.519 | 0.368 | 0.377 | 0.411 | 0.427 | 0.341
SK-MES-1 | 0.341 | 0.298 | 0.351 | 0.341 | 0.326 | 0.769 | 0.694 | 0.845 | 0.605 | 0.598 | 0.435 | 0.339 | 0.356 | 0.305 | 0.335 | 0.33 | 0.356 | 0.33 | 0.305 | 0.259
SW 1573 | 0.396 | 0.461 | 0.399 | 0.428 | 0.134 | 0.607 | 0.488 | 0.542 | 0.43 | 0.522 | 0.539 | 0.406 | 0.537 | 0.465 | 0.471 | 0.445 | 0.355 | 0.378 | 0.374 | 0.3
